Assay results published in US6683103B2, “Sulfonamides for treatment of endothelin-mediated disorders” (Texas Biotechnology Corporation, priority 1997, dated 2004).
Like-named read-outs stand apart in the source and are kept apart here. Values belong to the compound of their own block, whether it stands above or below them.

Key:
[1] = Oral half-life and peak plasma levels in rat; format: in vivo; conditions: for Peak Plasma Levels: in vivo; for POt½ in Rat: oral
Source text: As used herein, bioavailability refers to the rate and extent of absorption. Methods for determining bioavailability are well known to those of skill in the art. For example, bioavailability of any of the compounds described herein can be determined empirically by administration of the compound to an animal, followed by taking blood samples over time and measuring the blood concentration of the compound. In vivo half life (t½) is defined as the time it takes for the concentration of the compound in the blood to be reduced by one-half. Estimations of the area under the curve for intravenous administration can be used to estimate the area under the curve for oral administration, yielding bioavailability data. See, e.q., Milo Gibal (1991) Biopharmaceutics and Pharmacology, 4th edition (Lea and Sediger).
Table 4 lists oral half-life, bioavailability, and in vivo activity of selected exemplary compounds. The in vivo activity was measured in a pulmonary hypertension model and is a measure of the activity of the compounds at selected dosages.

human ETA receptors = biological target: T1, human ETA receptors (Homo sapiens, UniProt P25101); assay: Binding Test #1: inhibition of 125I-ET-1 binding to ETA receptors (TE 671 cell membranes)
T1 construct: endogenous in cells; host or cells: TE 671 cells (ATCC HTB 139)
T1 sequence (P25101 21-427): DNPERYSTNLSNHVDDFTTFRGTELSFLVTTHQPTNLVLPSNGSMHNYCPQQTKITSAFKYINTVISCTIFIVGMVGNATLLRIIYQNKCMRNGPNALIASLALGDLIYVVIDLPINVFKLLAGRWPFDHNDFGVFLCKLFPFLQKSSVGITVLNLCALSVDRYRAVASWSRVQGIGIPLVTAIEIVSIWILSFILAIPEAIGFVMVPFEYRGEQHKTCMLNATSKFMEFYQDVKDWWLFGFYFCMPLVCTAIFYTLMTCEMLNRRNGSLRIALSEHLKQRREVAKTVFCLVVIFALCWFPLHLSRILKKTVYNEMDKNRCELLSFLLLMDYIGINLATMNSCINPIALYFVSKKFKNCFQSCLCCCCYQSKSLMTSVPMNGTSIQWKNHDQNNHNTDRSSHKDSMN
In short: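 Radioligand competition in triplicate: ¹²⁵I-endothelin-1 displaced by test compound (1 nM–100 μM final) from ETA-bearing TE 671 cell membranes in HEPES pH 7.4 binding buffer with NaCl, MgCl2 and bacitracin. Incubation 16–18 h at 4 °C (or at 24 °C); 80 nM ET-1 defines nonspecific binding; pellet radioactivity gives percent inhibition.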

human ETB receptor = biological target: T2, human ETB receptor (Homo sapiens, UniProt P24530); assay: Binding Test #2: inhibition of 125I-ET-1 binding to ETB receptors (transfected COS7 cell membranes)
T2 construct: expressed in transfected cells; host or cells: COS7 cells
T2 sequence (P24530 27-442): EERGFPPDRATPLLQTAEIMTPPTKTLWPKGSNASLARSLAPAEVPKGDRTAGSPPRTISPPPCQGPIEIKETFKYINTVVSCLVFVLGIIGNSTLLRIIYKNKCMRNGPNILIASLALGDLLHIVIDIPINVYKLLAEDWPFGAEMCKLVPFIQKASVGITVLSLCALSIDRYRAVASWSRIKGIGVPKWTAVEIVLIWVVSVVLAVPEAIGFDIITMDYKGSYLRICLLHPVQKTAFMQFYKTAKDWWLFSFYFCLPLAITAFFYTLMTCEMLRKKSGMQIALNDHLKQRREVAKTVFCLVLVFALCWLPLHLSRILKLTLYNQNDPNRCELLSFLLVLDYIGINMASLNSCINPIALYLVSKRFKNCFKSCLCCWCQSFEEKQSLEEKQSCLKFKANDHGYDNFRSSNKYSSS
In short: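 Competition with 125I-ET-1 for binding to membranes from COS7 cells transfected with human ETB receptor, used at 1 μg/50 μl binding buffer. Membranes prepared in HEPES pH 7.4 with aprotinin, including a DNase/MnCl2 step at 37 °C for 30 min.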

[2] = Table 3, † incubation at 24° C., read-out: ETA
[3] = Table 1, † incubation at 24° C., read-out: ETA
[4] = Table 1, † incubation at 24° C., read-out: ETB
[5] = Table 1, incubation at 4° C., read-out: ETA
[6] = Table 1, incubation at 4° C., read-out: ETB
[7] = Table 2, incubation at 4° C., read-out: ETA
[8] = Table 2, incubation at 4° C., read-out: ETB
[9] = Table 2, † incubation at 24° C., read-out: ETA
[10] = Table 2, † incubation at 24° C., read-out: ETB

- Peak Plasma Levels [1]: 2.6 µg/mL
- POt½ in Rat [1]: 5.9 h
Compound: Cc1cc(C)c(NS(C)(=O)=O)c(C)c1NC(=O)c1sccc1S(=O)(=O)Nc1onc(C)c1Cl [N-(4-chloro-3-methyl-5-isoxazolyl)-2-(3-methanesulfonylamino-2,4,6-trimethylphenylaminocarbonyl)thiophene-3-sulfonamide]

- ETA/ETB selectivity (human ETA receptors; Table 3): 45000^∥
- IC50 (human ETA receptors; [2]): 0.36 nM
- Peak Plasma Levels [1]: 53 µg/mL
- POt½ in Rat [1]: 5.5 h
Compound: Cc1cc(C)c(NC(=O)c2sccc2S(=O)(=O)Nc2onc(C)c2Cl)c(C(=O)C2CC2)c1 [3-(((4-chloro-3-methyl-5-isoxazolyl)amino)sulfonyl)-N-(2-(cyclopropylcarbonyl)-4,6-dimethylphenyl)-2-thiophenecarboxamide]

- Peak Plasma Levels [1]: 20 µg/mL
- POt½ in Rat [1]: 3.9 h
Compound: Cc1cc(C)c(NC(=O)c2sccc2S(=O)(=O)Nc2onc(C)c2Cl)c(C)c1C#N [N-(4-chloro-3-methyl-5-isoxazolyl)-2-(3-cyano-2,4,6-trimethylphenylaminocarbonyl)thiophene-3-sulfonamide]

- ETA/ETB selectivity (human ETA receptors; Table 3): 14000^∥
- IC50 (human ETA receptors; [2]): 1.11 nM
- Peak Plasma Levels [1]: 59 µg/mL
- POt½ in Rat [1]: 5.4 h
Compound: Cc1cc(C)c(NC(=O)c2sccc2S(=O)(=O)Nc2onc(C)c2Cl)c(C(=O)C(C)C)c1 [3-(((4-chloro-3-methyl-5-isoxazolyl)amino)sulfonyl)-N-(2-isobutyryl-4,6-dimethylphenyl)-2-thiophenecarboxamide]

- melting point: 120 to 123 °C
Compound: Cc1noc(NS(=O)(=O)c2ccc(-c3ccon3)s2)c1Br [Example 10, N-(4-Bromo-3-methyl-5-isoxazolyl)-5-(3-isoxazolyl)thiophene-2-sulfonamide]

- IC50 (human ETA receptors; [3]): 0.4 nM
- Peak Plasma Levels [1]: 3 µg/mL
- POt½ in Rat [1]: 1.5 h
- IC50 (human ETB receptor; [4]): ~80000 nM
Compound: Cc1cc(C)c(NC(=O)c2sccc2S(=O)(=O)Nc2onc(C)c2Cl)c(C)c1CO [N-(4-chloro-3-methyl-5-isoxazolyl)-2-(3-hydroxymethyl-2,4,6-trimethylphenylaminocarbonyl)thiophene-3-sulfonamide]

- melting point: 42 to 44 °C
Compound: Cc1noc(NS(=O)(=O)c2ccsc2C(=O)Nc2ccccc2O)c1Br [N-(4-bromo-3-methyl-5-isoxazolyl)-2-[(2-hydroxyphenyl)aminocarbonyl]thiophene-3-sulfonamide]

- melting point: 128 to 130 °C
Compound: Cc1ccc(OCc2sccc2S(=O)(=O)Nc2onc(C)c2Br)cc1 [N-(4-bromo-3-methyl-5-isoxazolyl)-2-[(4-methylphenoxy)methyl]thiophene-3-sulfonamide]

- melting point: 75 to 78 °C
Compound: Cc1cc(C)c(N(C(=O)c2sccc2S(N)(=O)=O)c2onc(C)c2Cl)c(C)c1O [Example 52, N^2-(4-Chloro-3-methyl-5-isoxazolyl)-N-(3-hydroxy-2,4,6-trimethylphenyl)-3-sulfamoyl-2-thiophenecarboxamide]

- IC50 (human ETA receptors; [3]): 5.5 nM
- IC50 (human ETB receptor; [4]): 364 nM
Compound: Cc1onc(NS(=O)(=O)c2c(Cc3ccc4c(c3)OCO4)sc3ccccc23)c1Cl [N-(4-chloro-5-methyl-3-isoxazolyl)-2-[3,4-(methylenedioxy)benzyl]benzo[b]thiophene-3-sulfonamide]

- IC50 (human ETA receptors; [3]): 5290 nM
- IC50 (human ETB receptor; [4]): 18600 nM
Compound: N-(4-bromo-3-methyl-5-isoxazolyl)-1-[3,4-(methylenedioxy)benzyl]indole-2-sulfonamide

- IC50 (human ETA receptors; [3]): 11 nM
- IC50 (human ETB receptor; [4]): 61000 nM
Compound: COc1cc(NC(=O)c2sccc2S(=O)(=O)Nc2onc(C)c2Cl)c(C(N)=O)cc1OC [N-(4-chloro-3-methyl-5-isoxazolyl)-2-(2-carboxamido-4,5-dimethoxyphenylaminocarbonyl)thiophene-3-sulfonamide]

- IC50 (human ETA receptors; [5]): 5220 nM
- IC50 (human ETB receptor; [6]): 38400 nM
Compound: Cc1noc(NS(=O)(=O)c2cc3ccccc3o2)c1C [N-(3,4-dimethyl-5-isoxazolyl)benzofuran-2-sulfonamide]

- IC50 (human ETA receptors; [3]): 0.6 nM
- Peak Plasma Levels [1]: 40.2 µg/mL
- POt½ in Rat [1]: 3.4 h
- IC50 (human ETB receptor; [4]): ~45000 nM
Compound: Cc1cc(C)c(NC(=O)c2sccc2S(=O)(=O)Nc2onc(C)c2Cl)c(C)c1CC#N [N-(4-chloro-3-methyl-5-isoxazolyl)-2-(3-cyanomethyl-2,4,6-trimethylphenylaminocarbonyl)thiophene-3-sulfonamide]

- IC50 (human ETA receptors; [7]): 1.27 nM
- IC50 (human ETA receptors; read-out: IC50 for ETA receptors): ~1.6 nM
- IC50 (human ETB receptor; [8]): 8540 nM
Compound: Cc1noc(NS(=O)(=O)c2ccccc2-c2ccccc2)c1Br [N-(4-bromo-3-methyl-5-isoxazolyl)-2-biphenylsulfonamide]

- IC50 (human ETA receptors; [5]): 1600 nM
- IC50 (human ETB receptor; [6]): 300 nM
Compound: Cc1noc(NS(=O)(=O)c2ccc(-c3ccc(C(C)C)cc3)s2)c1Br [N-(4-bromo-3-methyl-5-isoxazolyl)-5-(4′-isopropylphenyl))thiophene-2-sulfonamide]

- IC50 (human ETA receptors; [5]): 960 nM
- IC50 (human ETB receptor; [6]): 1630 nM
Compound: Cc1noc(NS(=O)(=O)c2sc3ccc(Cl)cc3c2C)c1Br [N-(4-Bromo-3-methyl-5-isoxazolyl)-5-chloro-3-methylbenzo[b]thiophene-2-sulfonamide]

- IC50 (human ETA receptors; [3]): 7.3 nM
- IC50 (human ETB receptor; [4]): 8300 nM
Compound: N-(4-chloro-3-methyl-5-isoxazolyl)-2-[2-hyroxyproyl-4,5-(methylenedioxy)phenylaminocarbonyl]thiophene-3-sulfonamide

- IC50 (human ETA receptors; [7]): > 30 nM
- IC50 (human ETB receptor; [8]): 793 nM
- IC50 (human ETB receptor; read-out: IC50 for ETB receptors): ~793 nM
Compound: Cc1noc(NS(=O)(=O)c2cccc(-c3ccccc3)c2)c1Cl [N-(4-chloro-3-methyl-5-isoxazolyl)-3-biphenylsulfonamide]

- IC50 (human ETA receptors; [5]): 24 nM
- IC50 (human ETA receptors; [3]): 74 nM
- IC50 (human ETB receptor; [6]): 7950 nM
- IC50 (human ETB receptor; [4]): 16600 nM
Compound: CCCc1sc2ccccc2c1S(=O)(=O)Nc1onc(C)c1Br [N-(4-bromo-3-methyl-5-isoxazolyl)-2-n-propylbenzo[b]thiophene-3-sulfonamide]

- IC50 (human ETA receptors; [7]): 4930 ± 3000 nM
- IC50 (human ETB receptor; [8]): 290 ± 100 nM
Compound: Cc1noc(NS(=O)(=O)c2ccc(-c3ccccc3)cc2)c1Cl [N-(4-chloro-3-methyl-5-isoxazolyl)-4-biphenylsulfonamide]

- IC50 (human ETA receptors; [5]): 69.2 nM
- IC50 (human ETA receptors; [3]): 295 nM
- IC50 (human ETB receptor; [6]): 290 nM
- IC50 (human ETB receptor; [4]): 1190 nM
Compound: Cc1noc(NS(=O)(=O)c2ccsc2NC(=O)Nc2sccc2S(=O)(=O)Nc2onc(C)c2Br)c1Br [N,N′-bis{3-[(4-bromo-3-methyl-5-isoxazolyl)aminosulfonyl)thien-2-yl} urea]

- IC50 (human ETA receptors; [3]): 2000 nM
- IC50 (human ETB receptor; [4]): 15000 nM
Compound: Cc1noc(NS(=O)(=O)c2ccsc2C(=O)c2ccc3c(c2)OCO3)c1Br [N-(4-bromo-3-methyl-5-isoxazolyl)-2-[(3,4-methylenedioxy)benzoyl]thiophene-3-sulfonamide]

- IC50 (human ETA receptors; [7]): 34000 ± 9000 nM
- IC50 (human ETA receptors; [9]): 33000 nM
- IC50 (human ETB receptor; [8]): 990 ± 200 nM
- IC50 (human ETB receptor; [10]): 950 nM
Compound: CCCCCCCCCCCCCc1c(C(F)(F)F)noc1NS(=O)(=O)c1ccc(-c2ccccc2)cc1 [N-(4-Tridecyl-3-trifluoromethyl-5-isoxazolyl)-4-biphenylsulfonamide]

- IC50 (human ETA receptors; [7]): 14500 ± 9600 nM
- IC50 (human ETA receptors; [9]): 22200 ± 3770 nM
- IC50 (human ETB receptor; [8]): 46 ± 44 nM
- IC50 (human ETB receptor; [10]): 168 ± 3.2 nM
Compound: N-(4-bromo-3-methyl-5-isoxazolyl)-4′-methylphenyl-4-biphenylsulfonamide

- IC50 (human ETA receptors; [5]): 22.6 nM
- IC50 (human ETB receptor; [6]): ~3000 nM
Compound: CCCCc1sc2ccccc2c1S(=O)(=O)Nc1onc(C)c1Br [N-(4-bromo-3-methyl-5-isoxazolyl)-2-butylbenzo[b]thiophene-3-sulfonamide]

- IC50 (human ETA receptors; [5]): 432 nM
- IC50 (human ETB receptor; [6]): 313 nM
Compound: Cc1ccccc1-c1ccc(S(=O)(=O)Nc2onc(C)c2Br)s1 [N-(4-bromo-3-methyl-5-isoxazolyl)-5-(2-tolyl)thiophene-2-sulfonamide]
